Assay results: patent US9301951B2 (Ardelyx, Inc., priority 2010, dated 2016)
Marks after values point to notes of the source that are not given here.

Legend:
[1] = biological target: T1, rat NaP2b (SLC34A2) (Rattus norvegicus, UniProt Q9JJ09); assay: Inhibition of NaP2b-mediated Pi (33P) uptake in transfected HEK293 cells, rat NaP2b; assay type: cell-based; settings: HEK293 cells transfected with rat NaP2b, 100 uM phosphate, 0.1 nM to 30 uM, read-out: pIC50 range for rat Nap2b (converted)
T1 construct: host or cells: HEK293
T1 sequence (Q9JJ09 1-695): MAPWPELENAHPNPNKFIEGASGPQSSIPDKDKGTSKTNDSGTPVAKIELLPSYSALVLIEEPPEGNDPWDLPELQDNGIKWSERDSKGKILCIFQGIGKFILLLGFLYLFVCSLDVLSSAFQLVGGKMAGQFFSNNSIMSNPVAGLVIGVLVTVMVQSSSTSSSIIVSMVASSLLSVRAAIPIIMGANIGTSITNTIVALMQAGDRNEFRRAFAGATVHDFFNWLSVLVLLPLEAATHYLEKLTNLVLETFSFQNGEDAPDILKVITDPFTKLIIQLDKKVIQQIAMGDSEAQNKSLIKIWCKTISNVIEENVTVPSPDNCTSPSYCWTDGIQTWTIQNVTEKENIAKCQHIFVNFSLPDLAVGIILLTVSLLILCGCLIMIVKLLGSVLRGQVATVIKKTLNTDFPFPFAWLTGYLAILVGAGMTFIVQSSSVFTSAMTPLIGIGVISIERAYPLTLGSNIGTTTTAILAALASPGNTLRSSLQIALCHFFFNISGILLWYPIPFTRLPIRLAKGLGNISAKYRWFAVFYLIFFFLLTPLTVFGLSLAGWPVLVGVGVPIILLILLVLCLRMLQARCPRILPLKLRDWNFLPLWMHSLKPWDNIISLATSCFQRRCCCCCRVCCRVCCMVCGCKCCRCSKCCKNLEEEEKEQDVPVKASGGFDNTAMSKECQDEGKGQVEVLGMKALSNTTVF
Method: (§1) HEK293 cells were obtained from the American Type Culture collection and propagated per their instructions. Expression clones for rat and human NaP2b (SLC34A2) were obtained from Open Biosystems (Catalog numbers MRN1768-9510282, and MHS1010-99823026, respectively). The sequence of the human protein was mutated to insert a threonine after residue 37, and to introduce a N39D mutation.
(§2) Cells were seeded into 96-well plates at 25,000 cells/well and cultured overnight. Lipofectamine 2000 (Invitrogen) was used to introduce the NaP2b cDNA, and the cells were allowed to approach confluence during a second overnight incubation. […] Cells were then overlayed with either choline uptake buffer or sodium uptake buffer (14 mM Tris, 137 mM sodium chloride, 5.4 mM KCl, 2.8 mM CaCl2, 1.2 mM MgSO4, 100 uM KH2PO4, PiT-silencing agent, 1 mg/mL Bovine Serum Albumin, pH 7.4) containing 6-9 uCi/mL ^33P orthophosphoric acid (Perkin Elmer) and test compound. Each compound was tested at twelve concentrations ranging from 0.1 nM to 30 uM. Assays were run in duplicate.
Cells were lysed by addition of 20 μL 0.1% Tween 80 followed by 100 μL scintillation fluid, and counted using a TopCount (Perkin Elmer).
(§3) pIC50 (the negative log of the […]) values of the test compounds were calculated using GraphPad Prism.

[2] = biological target: T2, human NaP2b (SLC34A2) (Homo sapiens, UniProt O95436); assay: Inhibition of NaP2b-mediated Pi (33P) uptake in transfected HEK293 cells, human NaP2b; assay type: cell-based; settings: HEK293 cells transfected with human NaP2b, 100 uM phosphate, 0.1 nM to 30 uM, read-out: pIC50 range for human NaP2b (converted)
T2 construct: host or cells: HEK293
T2 sequence (O95436 1-690): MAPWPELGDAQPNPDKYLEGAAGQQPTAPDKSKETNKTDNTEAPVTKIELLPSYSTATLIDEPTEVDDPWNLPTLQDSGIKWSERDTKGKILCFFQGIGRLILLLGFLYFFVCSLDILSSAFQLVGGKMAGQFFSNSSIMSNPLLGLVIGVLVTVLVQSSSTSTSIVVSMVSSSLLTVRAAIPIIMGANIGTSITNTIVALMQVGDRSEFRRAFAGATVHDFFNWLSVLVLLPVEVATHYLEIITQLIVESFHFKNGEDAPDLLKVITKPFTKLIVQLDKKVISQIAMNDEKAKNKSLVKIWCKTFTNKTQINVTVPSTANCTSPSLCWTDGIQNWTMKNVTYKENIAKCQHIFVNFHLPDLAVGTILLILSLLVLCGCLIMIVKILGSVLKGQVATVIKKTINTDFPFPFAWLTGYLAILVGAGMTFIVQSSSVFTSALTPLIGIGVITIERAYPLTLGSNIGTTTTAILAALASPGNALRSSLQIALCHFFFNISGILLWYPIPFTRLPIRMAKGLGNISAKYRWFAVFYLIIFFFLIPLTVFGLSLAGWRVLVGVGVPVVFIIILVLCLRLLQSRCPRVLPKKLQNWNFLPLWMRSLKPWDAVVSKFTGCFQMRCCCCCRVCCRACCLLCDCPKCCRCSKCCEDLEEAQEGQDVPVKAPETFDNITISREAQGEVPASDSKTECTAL
Method: as §1
The rate of phosphate (Pi) uptake into HEK293 cells was measured using a modification of the method described by Mohrmann et al. (Mohrmann, I., Mohrmann, M., Biber, J., and Murer, H. (1986) Am. J. Phys. 250(3 Pt 1):G323-30.) Transfected HEK293 cells were treated with a pharmacological agent to minimize endogenous PiT-mediated phosphate transport activity, such that the only remaining sodium-dependent phosphate transport activity is that which was bestowed by introduction of the NaP2b genes.
as §2
After incubation for 3-30 minutes at room temperature, assay mixtures were removed, and the cells were washed twice with ice cold stop solution (137 mM sodium chloride, 14 mM Tris, pH 7.4). Cells were lysed by addition of 20 μL 0.1% Tween 80 followed by 100 μL scintillation fluid, and counted using a TopCount (Perkin Elmer).
as §3

[3] = test system: 5/6 nephrectomy (5/6Nx) rat model of CKD; assay: In vivo evaluation in CKD rats (5/6 nephrectomy, 0.9% P diet, calcitriol); settings: drug in chow
Method: To assess the ability of selected example compounds to impact the progression of chronic kidney disease (CKD), 5/6 nephrectomy (5/6Nx) rat model of CKD was used. […] 5/6 Nx rats were obtained from Charles River Labs (CRL, Hollister, Calif.). Upon arrival, the surgeries and extent of kidney damage in the animals were assessed by measuring serum creatinine, P, Ca, and BUN. Based on this analysis, rats with inconsistent kidney function were removed from the study and the remainder of the cohort was divided in to evenly stratified test groups. The remaining animals were then placed on the same synthetic diet used in the drug-in-chow studies (Example 350), except the P levels were adjusted to 0.9% P. Drugs are blended into this chow to achieve the required dosing rate. At this time, rats were also started on an activated Vitamin D regimen in which they were injected intraperitoneally with calcitriol at 80 ng/kg three times a week. Once a week, serum was collected via retro orbital bleeding for analysis of serum P and creatinine utilizing an ACE ALERA blood chemistry analyzer. […] Unless otherwise indicated, the data shown is from the serum collected at 2 weeks after initiation of the treatment regimen. In addition, for study #3, during the third week of the study, the animals were placed in metabolic cages for two days, and urine collected for the final 24 hours.

IC50 [1] [µM] | IC50 [2] [µM] | SMILES | also measured
1 to 7.94 | 1 to 7.94 | CCN(CC)c1ccc(NC(=O)c2cccc(COCCOCCOCCOCCOC(=O)N(CCO)CCO)c2)c(-c2cc(C(=O)NCc3cccc(C(F)(F)F)c3)ccn2)c1 [Example 176, 1-(3-(4-(diethylamino)-2-(4-(3-(trifluoromethyl)benzylcarbamoyl)pyridin-2-yl)phenylcarbamoyl)phenyl)-2,5,8,11-tetraoxamidecan-13-yl bis(2-hydroxyethyl)carbamate] | 
 |  | CCN(CC)c1ccc(NC(=O)c2cccc(CSCCOCCOCCOCCOCCOCCOCCOCCOCCC(=O)O)c2)c(-c2cc(C(=O)NCc3cccc(C(F)(F)F)c3)ccn2)c1 [Example 166, 1-(3-(4-(diethylamino)-2-(4-(3-(trifluoromethyl)benzylcarbamoyl)pyridin-2-yl)phenylcarbamoyl)phenyl)-5,8,11,14,17,20,23,26-octaoxa-2-thianonacosan-29-oic acid] | Ser CRE ([3]; study 2, 2 weeks): 1.2 mg/dL; Ser P ([3]; study 2, 2 weeks): 11 mg/dL; FGF23 ([3]; study 2, 2 weeks, serum): 100000 pg/mL; Ser CRE, mg/dL ([3]; study 3, 3 weeks): 1.0^§ mg/dL; Ser P, mg/dL ([3]; study 3, 3 weeks): 10^§ mg/dL; Avg % weight gain ([3]; study 3, 4 weeks): 35^§§ %; FGF23, pg/mL ([3]; study 3, 4 weeks, serum): 1.2 × 10^5§§ pg/mL
10 to 31.6 | 10 to 31.6 | CCN(CC)c1ccc(NC(=O)c2cccc(C(=O)N(C)CCN3CCN(C(=O)N(C)CCOCCOCCOCCC(=O)N(C)C[C@H](O)[C@@H](O)[C@H](O)[C@H](O)CO)CC3)c2)c(-c2cc(C(=O)N[C@H]3CCCc4ccccc43)ccn2)c1 [Example 232, 3-N-[4-(diethylamino)-2-(4-{[(1S)-1,2,3,4-tetrahydronaphthalen-1-yl]carbamoyl}pyridin-2-yl)phenyl]-1-N-methyl-1-N-(2-{4-[methyl(2-{2-[2-(2-{methyl[(2S,3R,4R,5R)-2,3,4,5,6-pentahydroxyhexyl]carbamoyl}ethoxy)ethoxy]ethoxy}ethyl)carbamoyl]piperazin-1-yl}ethyl)benzene-1,3-dicarboxamide] | 
10 to 31.6 | 10 to 31.6 | CCN(CC)c1ccc(NC(=O)c2cccc(CS(=O)(=O)CCOCCOCCOCCOCCC(=O)O)c2)c(-c2cc(C(=O)NCc3cccc(C(F)(F)F)c3)ccn2)c1 [Example 167, 1-(((3-((4-(diethylamino)-2-[4-(((3-(trifluoromethyl)phenyl]methyl)carbamoyl)pyridin-2-yl)phenyl)carbamoyl)phenyl)methane)sulfonyl)-3,6,9,12-tetraoxapentadecan-15-oic acid] | 
< 1 | < 1 | CCN(CC)c1ccc(NC(=O)c2cccc(Cn3ccc4c(C(=O)NCCOCCOCCOCCC(=O)O)cccc43)c2)c(-c2cc(C(=O)N[C@H]3CCCc4ccccc43)ccn2)c1 [Example 182, (S)-1-(1-(3-(4-(diethylamino)-2-(4-(1,2,3,4-tetrahydronaphthalen-1-ylcarbamoyl)pyridin-2-yl)phenylcarbamoyl)benzyl)-1H-indol-4-yl)-1-oxo-5,8,11-trioxa-2-azatetradecan-14-oic acid] | 
 |  | CCN(CC)c1ccc(NC(=O)c2cccc(CCCOCCOCCOCCOCCOCCOCCOCCOCCOC)c2)c(-c2cc(C(=O)N[C@H]3CCCc4ccccc43)ccn2)c1 [Example 261, (S)-2-(2-(3-(2,5,8,11,14,17,20,23,26-nonaoxanonacosan-29-yl)benzamido)-5-(diethylamino)phenyl)-N-(1,2,3,4-tetrahydronaphthalen-1-yl)isonicotinamide] | Ser CRE ([3]; study 1, 2 weeks): 1.0 mg/dL; Ser P ([3]; study 1, 2 weeks): 9.7 mg/dL; FGF23, pg/mL ([3]; study 1, 2 weeks, serum): >15,000 pg/mL
 | 1 to 7.94 | CCN(CC)c1ccc(NC(=O)c2cccc(CCCOCCOCCOCCOCCNS(=O)(=O)c3ccc(C(=O)N(C)CCOCCOCCOCCOCCOCCOCCOC)cc3)c2)c(-c2cc(C(=O)NCc3cccc(C(F)(F)F)c3)ccn2)c1 [Example 287, 2-(2-(3-(1-(4-(2,5,8,11,14,17,20-heptaoxadocosan-22-yl(methyl)carbamoyl)phenylsulfonamido)-3,6,9,12-tetraoxapentadecan-15-yl)benzamido)-5-(diethylamino)phenyl)-N-(3-(trifluoromethyl)benzyl)isonicotinamide] | 
 | 1 to 7.94 | CCN(CC)c1ccc(NC(=O)c2cccc(CCCOCCOCCOCCOCCNS(=O)(=O)c3ccc(C(=O)N4CCN(CCOCCOCCOCCOCCOCCOCCOC)C(=O)C4)cc3)c2)c(-c2cc(C(=O)NCc3cccc(C(F)(F)F)c3)ccn2)c1 [Example 288, 2-(2-(3-(1-(4-(4-(2,5,8,11,14,17,20-heptaoxadocosan-22-yl)-3-oxopiperazine-1-carbonyl)phenylsulfonamido)-3,6,9,12-tetraoxapentadecan-15-yl)benzamido)-5-(diethylamino)phenyl)-N-(3-(trifluoromethyl)benzyl)isonicotinamide] | 
1 to 7.94 | 1 to 7.94 | CCN(CC)c1ccc(NC(=O)c2cccc(COCCOCCOCCOCCOC(=O)NC(CO)(CO)CO)c2)c(-c2cc(C(=O)NCc3cccc(C(F)(F)F)c3)ccn2)c1 [Example 177, 1-(3-(4-(diethylamino)-2-(4-(3-(trifluoromethyl)benzylcarbamoyl)pyridin-2-yl)phenylcarbamoyl)phenyl)-2,5,8,11-tetraoxamidecan-13-yl 1,3-dihydroxy-2-(hydroxymethyl)propan-2-ylcarbamate] | 
1 to 7.94 | 1 to 7.94 | CCN(CC)c1ccc(NC(=O)c2cccc(CCCOCCOCCOCCOCCC(=O)N3CCN(C(=O)c4cccc(CCCOCCOCCOCCOCCC(=O)O)c4)CC3)c2)c(-c2cc(C(=O)NCc3cccc(C(F)(F)F)c3)ccn2)c1 [Example 293, 16-(3-(4-(16-(3-(4-(diethylamino)-2-(4-(3-(trifluoromethyl)benzylcarbamoyl)pyridin-2-yl)phenylcarbamoyl)phenyl)-4,7,10,13-tetraoxahexadecane)piperazine-1-carbonyl)phenyl)-4,7,10,13-tetraoxahexadecan-1-oic acid] | 
